Columns and labels:
[1] = test system: SW480 colon cancer cells; experiment: Cell viability assay (CellTiter-Blue) in SW480 colon cancer cells; format: cell-based; details: Homo sapiens, 96 h, four days; for inhibition at 10 µM: given where EC50 >10 μM, read-out: percent inhibition at 10 μM; for EC50: CellTiter-Blue
How it was run: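 SW480 colon cancer cells (~2×10^3/well) exposed to 8-point 1:3 dilutions from 10 μM to 0.0045 μM for four days at 37 °C/5% CO2. Viability read by resazurin (CellTiter-Blue) fluorescence after ~3 h, Ex 560/Em 590 nm. EC50 from non-linear regression; percent inhibition at 10 μM given when EC50 >10 μM.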

[2] = test system: Primary human fibroblasts derived from IPF patients (LL29 cells) treated with TGF-β1; experiment: Inhibition of the fibrotic process: αSMA staining in TGF-β1-treated primary human fibroblasts from IPF patients (LL29 cells); format: cell-based; details: Fibroblast, 96 h; for EC50: % αSMA-positive LL29 cells, TGF-β1 20 ng/mL, 4 days; for inhibition at 10 µM: given where EC50 >10 μM, αSMA, LL29 cells, TGF-β1, 4 days, read-out: percent inhibition at 10 μM
How it was run: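 LL29 IPF-patient fibroblasts in 1% FBS stimulated with TGF-β1 (20 ng/mL) and compound (10 μM–1.87 nM, 0.1% DMSO) for 4 days at 37 °C. SYTOX-positive cells excluded; % αSMA-positive cells imaged, normalized to TGF-β1/DMSO wells; EC50 by nonlinear regression, else % inhibition at 10 μM.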

| EC50 [1] [µM] | Compound | inhibition at 10 µM [1] [%] | EC50 [2] [µM] | inhibition at 10 µM [2] [%] |
| --- | --- | --- | --- | --- |
| 0.494 | CN(C)Cc1cncc(-c2ccc3[nH]nc(-c4cc5c(-c6cccc(F)c6)cccc5[nH]4)c3c2)c1 [Compound 13, 1-(5-(3-(4-(3-Fluorophenyl)-1H-indol-2-yl)-1H-indazol-5-yl)pyridin-3-yl)-N,N-dimethylmethanamine] | – | 0.302 | – |
| > 10 | O=C(Nc1cncc(-c2ccc3[nH]nc(-c4cc5c(-c6cccc(F)c6)cccc5[nH]4)c3c2)c1)C1CC1 [Compound 20, N-(5-(3-(4-(3-Fluorophenyl)-1H-indol-2-yl)-1H-indazol-5-yl)pyridin-3-yl) cyclopropanecarboxamide] | 15.6 | 4.55 | – |
| > 10 | O=C(Nc1cncc(-c2ccc3[nH]nc(-c4cc5c(-c6cccc(F)c6)cccc5[nH]4)c3c2)c1)C1CCCCC1 [Compound 23, N-(5-(3-(4-(3-Fluorophenyl)-1H-indol-2-yl)-1H-indazol-5-yl)pyridin-3-yl) cyclohexanecarboxamide] | 20.2 | 3.29 | – |
| > 10 | Fc1cccc(-c2cccc3[nH]c(-c4n[nH]c5ccc(-c6ccccn6)cc45)cc23)c1 [Compound 28, 3-(4-(3-Fluorophenyl)-1H-indol-2-yl)-5-(pyridin-2-yl)-1H-indazole] | 17.1 | 6.82 | – |
| > 10 | CC(C)(C)C(=O)Nc1cncc(-c2ccc3[nH]nc(-c4cc5c(-c6ccc(F)cc6)cccc5[nH]4)c3c2)c1 [Compound 36, N-(5-(3-(4-(4-Fluorophenyl)-1H-indol-2-yl)-1H-indazol-5-yl)pyridin-3-yl) pivalamide] | 50.4 | 3.33 | – |
| > 10 | CN(C)Cc1cncc(-c2ccc3[nH]nc(-c4cc5c(-c6ccc(F)cc6)cccc5[nH]4)c3c2)c1 [Compound 41, 1-(5-(3-(4-(4-Fluorophenyl)-1H-indol-2-yl)-1H-indazol-5-yl)pyridin-3-yl)-N,N-dimethylmethanamine] | 10 | 5.75 | – |
| > 10 | Fc1ccc(-c2cccc3[nH]c(-c4n[nH]c5ccc(-c6cncnc6)cc45)cc23)cc1 [Compound 55, 3-(4-(4-Fluorophenyl)-1H-indol-2-yl)-5-(pyrimidin-5-yl)-1H-indazole] | 26.3 | 6.11 | – |
| 1.29 | Nc1cncc(-c2ccc3[nH]nc(-c4cc5c(-c6ccccc6F)cccc5[nH]4)c3c2)c1 [Compound 59, 5-(3-(4-(2-Fluorophenyl)-1H-indol-2-yl)-1H-indazol-5-yl)pyridin-3-amine] | – | 0.603 | – |
| > 10 | CC(C)(C)CC(=O)Nc1cncc(-c2ccc3[nH]nc(-c4cc5c(-c6ccccc6F)cccc5[nH]4)c3c2)c1 [Compound 72, N-(5-(3-(4-(2-Fluorophenyl)-1H-indol-2-yl)-1H-indazol-5-yl)pyridin-3-yl)-3,3-dimethylbutanamide] | 16.2 | > 10 | 0 |
| > 10 | O=C(Nc1cncc(-c2ccc3[nH]nc(-c4cc5c(-c6ccccc6F)cccc5[nH]4)c3c2)c1)C1CCCC1 [Compound 78, N-(5-(3-(4-(2-Fluorophenyl)-1H-indol-2-yl)-1H-indazol-5-yl)pyridin-3-yl) cyclopentanecarboxamide] | 8.3 | > 10 | 3.7 |
| > 10 | c1cncc(-c2ccc3[nH]nc(-c4cc5c(-c6cccnc6)cccc5[nH]4)c3c2)c1 [Compound 88, 5-(Pyridin-3-yl)-3-(4-(pyridin-3-yl)-1H-indol-2-yl)-1H-indazole] | 21.9 | > 10 | 17.3 |

Second part, the compound before the results:

| Compound | EC50 [1] [µM] | inhibition at 10 µM [1] [%] | EC50 [2] [µM] | inhibition at 10 µM [2] [%] |
| --- | --- | --- | --- | --- |
| CCC(=O)Nc1cncc(-c2ccc3[nH]nc(-c4cc5c(-c6cccc(F)c6)cccc5[nH]4)c3c2)c1 [Compound 1, N-(5-(3-(4-(3-Fluorophenyl)-1H-indol-2-yl)-1H-indazol-5-yl)pyridin-3-yl) propionamide] | > 10 | 13.3 | 5.19 | – |
| Fc1cccc(-c2cccc3[nH]c(-c4n[nH]c5ccc(-c6cccnc6)cc45)cc23)c1 [Compound 4, 3-(4-(3-Fluorophenyl)-1H-indol-2-yl)-5-(pyridin-3-yl)-1H-indazole] | > 10 | 3.7 | > 10 | 10.4 |
| CCCC(=O)Nc1cncc(-c2ccc3[nH]nc(-c4cc5c(-c6cccc(F)c6)cccc5[nH]4)c3c2)c1 [Compound 17, N-(5-(3-(4-(3-Fluorophenyl)-1H-indol-2-yl)-1H-indazol-5-yl)pyridin-3-yl) butyramide] | > 10 | 12.9 | > 10 | 0 |
| CC(C)CC(=O)Nc1cncc(-c2ccc3[nH]nc(-c4cc5c(-c6ccc(F)cc6)cccc5[nH]4)c3c2)c1 [Compound 30, N-(5-(3-(4-(4-Fluorophenyl)-1H-indol-2-yl)-1H-indazol-5-yl)pyridin-3-yl)-3-methylbutanamide] | > 10 | 38.2 | 2.52 | – |
| O=C(Nc1cncc(-c2ccc3[nH]nc(-c4cc5c(-c6ccc(F)cc6)cccc5[nH]4)c3c2)c1)c1ccccc1 [Compound 39, N-(5-(3-(4-(4-Fluorophenyl)-1H-indol-2-yl)-1H-indazol-5-yl)pyridin-3-yl) benzamide] | 3.81 | – | 1.26 | – |
| Fc1ccc(-c2cccc3[nH]c(-c4n[nH]c5ccc(-c6cncc(CN7CCCC7)c6)cc45)cc23)cc1 [Compound 42, 3-(4-(4-Fluorophenyl)-1H-indol-2-yl)-5-(5-(pyrrolidin-1-ylmethyl)pyridin-3-yl)-1H-indazole] | > 10 | 42.4 | 2.09 | – |
| CC(C)(C)CC(=O)Nc1cncc(-c2ccc3[nH]nc(-c4cc5c(-c6ccc(F)cc6)cccc5[nH]4)c3c2)c1 [Compound 44, N-(5-(3-(4-(4-Fluorophenyl)-1H-indol-2-yl)-1H-indazol-5-yl)pyridin-3-yl)-3,3-dimethylbutanamide] | > 10 | 23.1 | 4.99 | – |
| CCCC(=O)Nc1cncc(-c2ccc3[nH]nc(-c4cc5c(-c6ccc(F)cc6)cccc5[nH]4)c3c2)c1 [Compound 45, N-(5-(3-(4-(4-Fluorophenyl)-1H-indol-2-yl)-1H-indazol-5-yl)pyridin-3-yl)butyramide] | > 10 | 5.3 | 5.52 | – |
| CCNCc1cncc(-c2ccc3[nH]nc(-c4cc5c(-c6ccccc6F)cccc5[nH]4)c3c2)c1 [Compound 62, N-((5-(3-(4-(2-Fluorophenyl)-1H-indol-2-yl)-1H-indazol-5-yl)pyridin-3-yl)methyl)ethanamine] | > 10 | 44.5 | 7.64 | – |
| CCC(=O)Nc1cncc(-c2ccc3[nH]nc(-c4cc5c(-c6cccnc6)cccc5[nH]4)c3c2)c1 [Compound 85, N-(5-(3-(4-(Pyridin-3-yl)-1H-indol-2-yl)-1H-indazol-5-yl)pyridin-3-yl) propionamide] | 0.479 | – | 0.066 | – |
| CC(C)C(=O)Nc1cncc(-c2ccc3[nH]nc(-c4cc5c(-c6cccnc6)cccc5[nH]4)c3c2)c1 [Compound 93, N-(5-(3-(4-(Pyridin-3-yl)-1H-indol-2-yl)-1H-indazol-5-yl)pyridin-3-yl) isobutyramide] | 2.3 | – | 1.22 | – |

From patent US10604512B2, “3-(1H-indol-2-yl)-1H-indazoles and therapeutic uses thereof” (Samumed, LLC, priority 2015, dated 2020)
